Here are results for 20 compounds from BindingDB's records for patent US20240335431 (Acerta Pharma, 2024).

pIC50, pKi: −log10 of the molar value.

One assay has as its target T1, Muscarinic acetylcholine receptor M2 (Homo sapiens, UniProt P08172).
T1 sequence (P08172 whole entry): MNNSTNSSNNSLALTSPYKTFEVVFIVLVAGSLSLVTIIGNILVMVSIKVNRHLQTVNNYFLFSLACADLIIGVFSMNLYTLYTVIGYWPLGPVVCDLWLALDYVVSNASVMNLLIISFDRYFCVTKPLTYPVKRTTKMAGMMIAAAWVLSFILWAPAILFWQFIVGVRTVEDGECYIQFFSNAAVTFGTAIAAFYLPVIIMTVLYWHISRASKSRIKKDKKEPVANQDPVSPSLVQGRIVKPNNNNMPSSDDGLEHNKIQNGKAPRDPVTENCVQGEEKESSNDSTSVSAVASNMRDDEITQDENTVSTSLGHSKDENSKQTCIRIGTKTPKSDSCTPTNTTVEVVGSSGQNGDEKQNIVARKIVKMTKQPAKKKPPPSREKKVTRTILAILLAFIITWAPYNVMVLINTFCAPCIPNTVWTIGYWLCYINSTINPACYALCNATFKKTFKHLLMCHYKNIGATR
Description: Muscarinic M2 Receptor Binding Assay. Here is the method: Cell membrane homogenates (60 μg protein) were incubated for 60 minutes at 22° C. with 2 nM [3H]AF-DX 384 in the absence or presence of the test compound in a buffer containing 50 mM Tris-HCl (pH 7.4), 120 mM NaCl, 5 mM KCl, 5 mM MgCl2, and 1 mM EDTA. Nonspecific binding was determined in the presence of 1 μM atropine. Following incubation, the samples were filtered rapidly under vacuum through glass fiber filters (GF/B, Packard) presoaked with 0.3% PEI and rinsed several times with ice-cold 50 mM Tris-HCl using a 96-sample cell harvester (Unifilter, Packard). The filters were dried then counted for radioactivity in a scintillation counter (Topcount, Packard) using a scintillation cocktail (Microscint 0, Packard). The results were expressed as a percent inhibition of the control radioligand specific binding, from which the Ki was calculated. Data were analyzed using software developed at Cerep (Hill software) and validated by comparison with data generated by the commercial software SigmaPlot 4.0 for Windows ( 1997 by SPSS Inc.).
The term pKi denotes the Ki on a negative log10 scale, so that one unit is a factor of ten. Low values mean a high Ki, high ones a low Ki. The compound `CCN(C(=O)c1cc(F)ccc1-n1c(C)c(C(=O)C2CCN(C(=O)[C@H]3NC[C@@H]4C[C@@H]43)CC2)c2ccncc21)C(C)C` (single isomer, unassigned) [US20240335431, Example 48-1] gave a negative logarithm of the Ki (pKi) of 5.17.

The next assay deals with T2, Menin (Homo sapiens, UniProt O00255).
T2 sequence (O00255 whole entry): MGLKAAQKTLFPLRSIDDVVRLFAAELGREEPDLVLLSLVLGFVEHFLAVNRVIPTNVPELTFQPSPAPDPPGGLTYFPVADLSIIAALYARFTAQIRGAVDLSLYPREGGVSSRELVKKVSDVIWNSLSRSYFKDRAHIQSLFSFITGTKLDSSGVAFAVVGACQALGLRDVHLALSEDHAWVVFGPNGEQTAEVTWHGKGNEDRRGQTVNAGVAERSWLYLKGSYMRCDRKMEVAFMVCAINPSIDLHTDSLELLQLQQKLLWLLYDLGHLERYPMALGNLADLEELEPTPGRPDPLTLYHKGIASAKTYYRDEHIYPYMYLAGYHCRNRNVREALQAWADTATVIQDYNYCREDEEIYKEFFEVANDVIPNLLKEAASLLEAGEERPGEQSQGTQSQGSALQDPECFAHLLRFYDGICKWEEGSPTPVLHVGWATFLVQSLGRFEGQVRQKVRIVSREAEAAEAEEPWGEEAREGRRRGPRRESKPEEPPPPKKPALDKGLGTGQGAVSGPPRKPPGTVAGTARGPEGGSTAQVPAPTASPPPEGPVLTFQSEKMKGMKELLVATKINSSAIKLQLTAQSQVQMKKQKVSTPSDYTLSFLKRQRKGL
In words: Fluorescence Polarization (FP) Assay. Here is the method: Compounds were tested in a biochemical binding assay using Menin protein at 2 nM (N6his-tev-Menin_4i80, PB-20-1459) and the substrate cRho110-Ahx-MBM1/MBM2 peptide (UbiQ, UbiQ-Q20201030; cRh110-Ahx-[…]-QRVPALLLPPG-NH2) at 1 nM.384 Low volume black plates (Corning #4514) were used. 5 μL/well compound or 3% DMSO was added at 10-fold serial dilutions in DMSO from 10 μM. 5 μL/well cRho110-Ahx-MBM1/MBM2 peptide or binding buffer (50 mM Tris pH 7.5, 50 mM NaCl, 1 mM TCEP, 0.01% BGG, 0.01% Brij-35) was added to all wells. 5 μL/well Menin protein or binding buffer (50 mM Tris pH 7.5, 50 mM NaCl, 1 mM TCEP, 0.01% BGG, 0.01% Brij-35) was added to all wells. Plates were read on an EnVision plate reader (Perkin Elmer) with excitation at 480 nm and emission at 535 nm P+S, and measured every 5 minutes for 180 minutes.
(In fluorescence polarisation assays a small probe gives low polarisation when free and higher when bound to something large.)
One may read the pIC50 as the IC50 on a negative log10 scale, so that one unit is a factor of ten. Read a low pIC50 as a high IC50. In turn, `CCN(C(=O)c1cc(F)ccc1-n1c(C)c(C(=O)C2CCN(C(=O)[C@H]3NC[C@@H]4C[C@@H]43)CC2)c2ccncc21)C(C)C` (single isomer, unassigned) [US20240335431, Example 48-1] showed a negative logarithm of the IC50 (pIC50) of 5.70.
`C[C@@H]1COC[C@H](C)N1C(=O)c1cc(F)ccc1-n1cc(C(=O)C2CCN(C(=O)[C@H]3N[C@@H]4CC[C@H]3C4)CC2)c2ccncc21` [US20240335431, Example 35] showed a negative-log IC50 (pIC50) of 7.01.
In the case of `O=C(c1cn(-c2ccc(F)cc2-c2cncnc2C2CC2)c2cnccc12)C1CCN(C(=O)[C@H]2N[C@@H]3CC[C@H]2C3)CC1` [US20240335431, Example 40], the negative logarithm of the IC50 (pIC50) is 7.74.
Same read-out and setting: the figure for `Cc1c(C(=O)C2CCN(C(=O)[C@H]3NC[C@@H]4C[C@@H]43)CC2)c2ccncc2n1-c1ccc(F)cc1C(=O)N(CC(F)(F)F)C(C)C` (single isomer, unassigned) [US20240335431, Example 51-1] is 6.11; for `Cc1c(C(=O)C2CCN(C(=O)[C@H]3NC[C@@H]4C[C@@H]43)CC2)c2ccncc2n1-c1ccc(F)cc1C(=O)N(C(C)C)C(C)C` (single isomer, unassigned) [US20240335431, Example 55-1] it is 5.87; for `C[C@@H]1CCC[C@H](C)N1C(=O)c1cc(F)ccc1-n1cc(C(=O)C2CCN(C(=O)[C@H]3N[C@@H]4CC[C@H]3C4)CC2)c2ccncc21` [US20240335431, Example 33] it is 7.43.
Same read-out and setting: to `CC(C)N(C(=O)c1cc(F)ccc1-n1cc(C(=O)[C@H]2CCN(C(=O)[C@H]3N[C@@H]4CC[C@H]3C4)C2)c2ccncc21)C(C)C` [US20240335431, Example 2] belongs 7.33; to `CC(C)N(C(=O)c1cc(F)ccc1-n1cc(C(=O)C2CN(C(=O)[C@H]3N[C@@H]4CC[C@H]3C4)C2)c2ccnc(F)c21)C(C)C` [US20240335431, Example 15], 7.77; to `Cc1c(C(=O)C2CCN(C(=O)[C@H]3NC[C@@H]4C[C@@H]43)CC2)c2ccncc2n1-c1ccc(F)cc1C(=O)N(C(C)C)[C@H](C)C(F)(F)F` (single isomer, unassigned) [US20240335431, Example 57-1], 7.48.
Regarding `C[C@@H]1CC[C@H](C)N1C(=O)c1cc(F)ccc1-n1cc(C(=O)C2CCN(C(=O)[C@H]3N[C@@H]4CC[C@H]3C4)CC2)c2ccncc21` [US20240335431, Example 32], the pIC50 was 7.44.
`CC(C)N(C(=O)c1cc(F)ccc1-n1cc(C(=O)C2CN(C(=O)[C@H]3N[C@@H]4CC[C@H]3C4)C2)c2ccncc21)C(C)C` [US20240335431, Example 5] gave a negative logarithm of the IC50 (pIC50) of 7.74.
The compound `CCN(C(=O)c1cc(F)ccc1-n1cc(C(=O)C2CCN(C(=O)[C@H]3N[C@@H]4CC[C@H]3C4)CC2)c2ccncc21)C(C)C` [US20240335431, Example 31] had a negative logarithm of the IC50 (pIC50) of 8.00.
The same measure, in the same setting: to `CC(C)c1ncsc1-c1cc(F)ccc1-n1cc(C(=O)C2CCN(C(=O)[C@H]3N[C@@H]4CC[C@H]3C4)CC2)c2ccncc21` [US20240335431, Example 42] belongs 8.05; to `CC(C)N(C(=O)c1cc(F)ccc1-n1cc(C(=O)C2CCN(C(=O)[C@H]3N[C@@H]4CC[C@H]3C4)CC2)c2c(F)cncc21)C(C)C` [US20240335431, Example 44], 7.24.
`CC(C)c1cnccc1-c1cc(F)ccc1-n1cc(C(=O)C2CN(C(=O)[C@H]3N[C@@H]4CC[C@H]3C4)C2)c2ccncc21` [US20240335431, Example 11] had a pIC50 of 8.40.
On the same count and under the same terms, to `CC(C)N(C(=O)c1cc(F)ccc1-n1cc(C(=O)C2CN(C(=O)[C@H]3NC4CCC3CC4)C2)c2ccncc21)C(C)C` [US20240335431, Example 6] belongs 7.38; to `CC(C)N(C(=O)c1cc(F)ccc1-n1cc(C(=O)C2CN(C(=O)[C@H]3N[C@@H]4CC[C@H]3C4)C2)c2ccnnc21)C(C)C` [US20240335431, Example 14], 6.86.
`COCCN(C)CCC[C@H](C(C)C)N1CCC(C(=O)c2cn(-c3ccc(F)cc3C(=O)N(C(C)C)C(C)C)c3cnccc23)CC1` (racemic) [US20240335431, Example 23] had a pIC50 of 8.15.
Still for that read-out and setting: the figure for `CCN(C(=O)c1cc(F)ccc1-n1cc(C(=O)C2CN(C(=O)[C@H]3N[C@@H]4CC[C@H]3C4)C2)c2ccncc21)C(C)C` [US20240335431, Example 8] is 7.57; for `CC(C)(F)c1ncccc1-c1cc(F)ccc1-n1cc(C(=O)C2CN(C(=O)[C@H]3N[C@@H]4CC[C@H]3C4)C2)c2ccncc21` [US20240335431, Example 13] it is 8.40.
